Data set [1] can be described thus: Nitroxyl production via 1H NMR protocol using TXPTS (NMR half-lives). It counts as physicochemical. The note with it: phosphate buffer containing TXPTS (HNO trap); pH 7.4, 0.25 M phosphate buffer, 5 mM TXPTS, 1 mM compound, 37° C., spectra over 8 hours; read-out: NMR-T1/2. As to the method:
The ^1H NMR procedure used was based on an HPLC protocol developed by S. Bruce King and coworkers (Reisz et al., Org. Lett. 11:2719-2721 (2009), Reisz et al., J. Am. Chem. Soc. 133:11675-11685 (2011) and Guthrie et al., J. Org. Chem. 80:1338-1348 (2015)). According to this procedure, the amount of HNO released from a pyrazolone derivative compound was determined by reacting the compound with the triarylphosphine TXPTS and monitoring the resulting aza-ylide formation.
The procedure for determining the amount of HNO released from certain compounds from Table 1 was as follows.
Tris(4,6-dimethyl-3-sulfanatophenyl)phosphine trisodium salt (TXPTS) was of reagent grade and used without further purification. Synthetic TXPTS aza-ylide was obtained through the amidation of TXPTS using hydroxylamine O-sulfonic acid in water (Armstrong et al., Org. Lett. 7:713-716 (2005)). All other materials were of reagent grade and used without further purification.
All ^1H NMR spectra were obtained in an adjusted-to pH 7.4 solution containing 0.25 M phosphate buffer, 0.2 mM of the metal chelator diethylenetriaminepentaacetic acid (“DTPAC”), and 10% D2O on a Bruker Avance 250 MHz FT-NMR spectrometer using a 1 second presaturation pulse to suppress the water signal. To a nitrogen-purged NMR solution (1.00 mL) containing TXPTS (3.3 mg, 5 mM) was added a pyrazolone derivative compound (10 μL of 100 mM in methanol-d4) to give 1 mM as the initial concentration of the pyrazolone derivative compound. The solution was briefly mixed, about 0.5 mL was transferred to a nitrogen-purged NMR tube and an initial ^1H NMR spectrum (time=0) was obtained. Thereafter, the sample was internally incubated at 37° C. and ^1H NMR spectra were collected at regular intervals for 8 hours.
The HNO donating pyrazolone derivative compound, by-product (e.g., (III) in Scheme 1), and TXPTS aza-ylide concentrations, determined from NMR spectra taken over 8 hours, were plotted as a function of time, and each data set was fitted to a single exponential function. The NMR half-lives for the disappearance of the HNO donating pyrazolone derivative compound and the appearance of by-product and TXPTS aza-ylide were determined from the respective plots. […] A control compound, compound 7 disclosed in WO 2013/059194, was also evaluated.

Data set [2] is described as follows: In vitro plasma stability, dog plasma. It counts as in vitro ADME. The note with it: male, pH 7.4, 5 μM, 37° C., sampling 0-360 minutes, read-out: T1/2 Dog. Summed up: (§1)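 Pooled plasma at pH 7.4 with sodium heparin or citrate anticoagulant; compound at 5 μM, 37° C with shaking, triplicate samples at 0–360 min. Quenched in acetonitrile/1% formic acid with internal standard; LC-MS/MS peak-area ratios without standard curve; T1/2 from percent remaining.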

A short description of data set [3]: In vitro plasma stability, rat plasma. It counts as in vitro ADME. The note with it: male, pH 7.4, 5 μM, 37° C., sampling 0-360 minutes, read-out: T1/2 Rat. Summed up:
as §1

Data set [4] in a line: In vitro plasma stability, human plasma. It counts as in vitro ADME. The note with it: male, pH 7.4, 5 μM, 37° C., sampling 0-360 minutes, read-out: T1/2 Human. The essentials:
as §1

In data set [5] the test system is normal beagle dogs. The data set is described as follows: Pharmacodynamic activity: systolic blood pressure decrease in telemetered dogs after oral dose. It counts as in vivo, dog. Conditions: beagle dogs (n=3), single oral dose 30 mg/kg in PEG300, first 2 hr post-dose relative to baseline SBP. Here is the method: The effect of certain compounds from Table 1 on blood pressure in freely moving telemetered normal beagle dogs (n=3) after single oral doses was evaluated. The animals were surgically implanted with a pressure transducer equipped telemetry transmitter. The transmitter assembly was secured internally and a fluid-filled catheter was placed into the abdominal aorta to allow for collection of cardiovascular data. To evaluate cardiovascular effects, 3 dogs were given single oral doses of a compound from Table 1 (100% PEG300 in gelatin capsules) at a concentration of 100 mg/mL and at doses of 30 mg/kg. Systemic blood pressure and heart rate were evaluated continuously for 2 hr before and for 24 hr after dosing (results not shown). To compare the pharmacodynamic activity for all tested compounds, the mean systolic blood pressure (SBP) decrease during the first 2 hr post-dose was determined relative to the baseline SBP (30-120 min pre-dose) (Table 6).

A short description of data set [6]: Solid-state stability at 40° C. and 75% RH (purity by HPLC). It counts as physicochemical. Conditions: solid powder. As to the method:
Solid, powdered samples of certain compounds from Table 1 were sealed in double polyethylene bags and stored at 40° C., 75% relative humidity (“RH”) for up to 3 months. A control compound, compound 7 disclosed in WO 2013/059194, was also tested. Initially and after 1 month, 2 months, and 3 months of storage, the samples were analyzed for purity, as determined by high performance liquid chromatography (“HPLC”). Additionally, certain compounds from Table 1 were admixed at a level of 50% by weight with one of the following excipients before stability testing: lactose, microcrystalline cellulose, or croscarmellose sodium. The resulting admixtures were also stored as described above then analyzed for purity of the pyrazolone derivative component, as determined by HPLC. The HPLC apparatus comprised a quaternary or binary pump, an auto sampler, a thermostated column compartment, and a UV/visible detector. The HPLC measurement conditions were as follows: • Column: Zorbax Eclipse XDB-C18, 2.1×50 mm, 3.5 μm (Agilent Technologies, Santa Clara, Calif.) • Injection Volume: 2 μL • Detection Wavelength: 220 nm • Mobile Phase A: 0.1% by volume formic acid (“FA”) in water • Mobile Phase B: 0.1% by volume FA in acetonitrile • Diluent: About 0.2 mg sample/mL acetonitrile • Gradient:
• Flow Rate: 0.8 mL/min • Column Temperature: 25° C.

Take `CN1N=C(c2ccccc2F)C(C)(NO)C1=O` (stereo not shown) [Compound 3, 5-(2-fluorophenyl)-4-(hydroxyamino)-2,4-dimethyl-2,4-dihydro-3H-pyrazol-3-one]: in data set [1], the half-life at 1 mM was determined as 237 min. Further, the half-life at 5 μM was determined as 28 min in data set [2], 37 min in data set [3] and 32 min in data set [4]. For the same compound, in data set [5], the “Mean SBP decrease” value came out at 28 mmHg.
Take `CN1N=C(c2ccc(C(F)(F)F)cc2)C(C)(NO)C1=O` (stereo not shown) [Compound 4, 4-(hydroxyamino)-2,4-dimethyl-5-(4-(trifluoromethyl)phenyl)-2,4-dihydro-3H-pyrazol-3-one]: the half-life at 5 μM in data set [2] was 69 min; in data set [3] it was 38 min; in data set [4], 31 min. Also, in data set [5], the “Mean SBP decrease” value is recorded as 6 mmHg.
For the compound `CC1=NN(C)C(=O)C1(NO)c1ccccc1` (stereo not shown) [Compound 6, 4-(hydroxyamino)-2,5-dimethyl-4-phenyl-2,4-dihydro-3H-pyrazol-3-one], the half-life at 1 mM in data set [1] amounted to 34 min. Moreover, the values for the half-life at 5 μM in data set [2] and in data set [4] were 12 min and 38 min, respectively. Further, the Solid-state stability, purity by HPLC, 0 Months in data set [6] (0 Months (initial)) is 99.8%. Moreover, in data set [6] (1 Month, in % (unit assumed)), the “Solid-state stability, purity by HPLC, 1 Month” value was less than 10. Besides, the “Mean SBP decrease” value in data set [5] was found to be 22 mmHg.
As for `CN1N=C(c2ccc(S(=O)(=O)C(F)(F)F)cc2)C(C)(NO)C1=O` (stereo not shown) [Compound 34, 4-(hydroxyamino)-2,4-dimethyl-5-(4-((trifluoromethyl)sulfonyl)phenyl)-2,4-dihydro-3H-pyrazol-3-one], the half-life at 5 μM in data set [2] came out at 25 min; in data set [3] it was 28 min; in data set [4], 36 min. Further, in data set [5], the “Mean SBP decrease” value was determined as 18 mmHg.
`CN1N=C(c2ccc(S(C)(=O)=O)c(F)c2)C(C)(NO)C1=O` (stereo not shown) [Compound 40, 5-(3-fluoro-4-(methylsulfonyl)phenyl)-4-(hydroxyamino)-2,4-dimethyl-2,4-dihydro-3H-pyrazol-3-one]: the half-life at 5 μM in data set [2] was 48 min; in data set [3], 39 min; in data set [4] it was 39 min. The “Mean SBP decrease” value in data set [5] is given as 15 mmHg.
Regarding `CN1N=C(c2cccc(S(C)(=O)=O)c2)C(C)(NO)C1=O` (stereo not shown) [Compound 48, 4-(hydroxyamino)-2,4-dimethyl-5-(3-(methylsulfonyl)phenyl)-2,4-dihydro-3H-pyrazol-3-one], the values for the half-life at 5 μM in data set [2], in data set [3] and in data set [4] were 49 min, 53 min and 49 min, respectively. In data set [5], the “Mean SBP decrease” value is on record as 17 mmHg.
For the compound `CN1N=C(c2ccc(S(=O)(=O)N(C)C)cc2)C(C)(NO)C1=O` (stereo not shown) [Compound 49, 4-(4-(hydroxyamino)-1,4-dimethyl-5-oxo-4,5-dihydro-1H-pyrazol-3-yl)-N,N-dimethylbenzenesulfonamide], the half-life at 5 μM in data set [2] was determined as 39 min; in data set [3], 70 min; in data set [4], 52 min. In addition, in data set [5], the “Mean SBP decrease” value amounted to 18 mmHg.
The corresponding values for `CN1N=C(c2ccc(S(C)(=N)=O)cc2)C(C)(NO)C1=O` (stereo not shown) [Compound 75, 4-(Hydroxyamino)-3-{4-[imino(methyl)oxo-λ^6-sulfanyl]phenyl}-1,4-dimethyl-4,5-dihydro-1H-pyrazol-5-one] are 47 min, 113 min, 49 min and 12 mmHg.
Regarding `CC(C)S(=O)(=O)c1ccc(C2=NN(C)C(=O)C2(C)NO)cc1` (stereo not shown) [Compound 78, 4-(Hydroxyamino)-1,4-dimethyl-3-[4-(propane-2-sulfonyl)phenyl]-4,5-dihydro-1H-pyrazol-5-one], the values for the half-life at 5 μM in data set [2], in data set [3] and in data set [4] were 42 min, 75 min and 43 min, respectively. Further, in data set [5], the “Mean SBP decrease” value was 27 mmHg.
Take `CN1N=C(c2ccc(S(=O)(=O)N3CCOCC3)cc2)C(C)(NO)C1=O` (stereo not shown) [Compound 80, 4-(Hydroxyamino)-1,4-dimethyl-3-[4-(morpholine-4-sulfonyl)phenyl]-4,5-dihydro-1H-pyrazol-5-one]: the half-life at 5 μM in data set [2] was determined as 49 min; in data set [3], 80 min; in data set [4] it was 46 min. Besides, the “Mean SBP decrease” value in data set [5] worked out at 13 mmHg.
With `CN(C)C(=O)c1ccc(C2=NN(C)C(=O)C2(C)NO)cc1` (stereo not shown) [Compound 84, 4-[4-(Hydroxyamino)-1,4-dimethyl-5-oxo-4,5-dihydro-1H-pyrazol-3-yl]-N,N-dimethylbenzamide], the half-life at 5 μM in data set [2] is 100 min; in data set [3], 161 min; in data set [4], 89 min. Besides, in data set [5], the “Mean SBP decrease” value is 15 mmHg.
For `CCO/N=C(\C)C1(NO)C(=O)N(C)N=C1C(C)(C)C` (stereo not shown) [Compound 112, 3-tert-Butyl-4-[1-(ethoxyimino)ethyl]-4-(hydroxyamino)-1-methyl-4,5-dihydro-1H-pyrazol-5-one], the half-life at 5 μM is 21 min in data set [2], 19 min in data set [3] and 10 min in data set [4]. The “Mean SBP decrease” value in data set [5] worked out at 21 mmHg.
The corresponding values for `CN1N=C(C(C)(C)C)C(NO)(c2ccccc2)C1=O` (stereo not shown) [Compound 113, 3-tert-Butyl-4-(hydroxyamino)-1-methyl-4-phenyl-4,5-dihydro-1H-pyrazol-5-one] are 75 min, 53 min, 30 min and 18 mmHg.
Turning to `CC1(NO)C(=O)NN=C1c1ccc(S(C)(=O)=O)cc1` (stereo not shown) [Compound 133, 4-(Hydroxyamino)-3-(4-methanesulfonylphenyl)-4-methyl-4,5-dihydro-1H-pyrazol-5-one], the half-life at 5 μM is 126 min in data set [2], 116 min in data set [3] and 110 min in data set [4].
Take `CCO/N=C(\C)C1(NO)C(=O)NN=C1C(C)(C)C` (stereo not shown) [Compound 134, 3-tert-Butyl-4-[1-(ethoxyimino)ethyl]-4-(hydroxyamino)-4,5-dihydro-1H-pyrazol-5-one]: the half-life at 5 μM in data set [2] was found to be 26 min; in data set [3] it was 20 min; in data set [4], 17 min.
